Measured values from US20130102631A1, “NOVEL MICROBIOCIDAL DIOXIME ETHER DERIVATIVES” (SYNGENTA CROP PROTECTION LLC, priority 2010, published 2013).

What was measured:
[1] = test system: Monographella nivalis (Microdochium nivale); test: Monographella nivalis (Microdochium nivale) / liquid culture (foot rot cereals); format: cell-based; details: at ≦200 ppm, liquid culture PDB, inhibition of growth photometrically 4-5 days after application, read-out: control of Monographella nivalis
Method in brief: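 Microdochium nivale conidia in potato dextrose broth added to compound delivered in DMSO, then incubated at 24 °C. Growth inhibition measured photometrically 4-5 days after application.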

[2] = test system: Phaeosphaeria nodorum (Septoria nodorum); test: Phaeosphaeria nodorum (Septoria nodorum) / wheat / leaf disc preventative (glume blotch); format: in vivo; details: Parastagonospora nodorum, foliar, wheat leaf segments cv Kanzler, inoculated 2 days after application, assessed 5-7 days after application
Method in brief: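 Wheat cv Kanzler leaf segments on agar were sprayed with formulated compound at 200 ppm and inoculated with spores 2 days later. Incubation at 20 °C, 75% RH, 12/12 h light/dark; percent disease control versus untreated scored 5–7 days after application.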

Glomerella lagenarium = Glomerella lagenarium (Colletotrichum lagenarium) / liquid culture (anthracnose); format: cell-based; details: Colletotrichum orbiculare; at ≦200 ppm, liquid culture PDB, inhibition of growth photometrically 3-4 days after application; read-out: control of Glomerella lagenarium
Method in brief: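 Glomerella lagenarium conidia in potato dextrose broth added to test compound supplied in DMSO in microtiter wells. Plates incubated at 24° C.; growth inhibition measured photometrically 3-4 days after application.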

[3] = test system: Mycosphaerella arachidis (Cercospora arachidicola); test: Mycosphaerella arachidis (Cercospora arachidicola) / liquid culture (early leaf spot); format: cell-based; details: at ≦200 ppm, liquid culture PDB, inhibition of growth photometrically 4-5 days after application, read-out: control of Mycosphaerella arachidis
Method in brief: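 Cryostored Cercospora arachidicola conidia were mixed into potato dextrose broth and added to test compound in DMSO. Incubation was at 24° C. Growth inhibition was read photometrically 4-5 days after application.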

Gaeumannomyces graminis = Gaeumannomyces graminis / liquid culture (take-all of cereals); format: cell-based; details: at ≦200 ppm, liquid culture PDB, inhibition of growth photometrically 4-5 days after application, read-out: control of Gaeumannomyces graminis
Method in brief: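 Mycelial fragments of the fungus in potato dextrose broth were added to wells containing compound in DMSO. Plates were incubated at 24° C, and growth inhibition was read photometrically 4-5 days after application.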

[4] = test system: Mycosphaerella graminicola (Septoria tritici); test: Mycosphaerella graminicola (Septoria tritici) / liquid culture (Septoria blotch); format: cell-based; details: Zymoseptoria tritici; at ≦200 ppm, liquid culture PDB, inhibition of growth photometrically 4-5 days after application; read-out: control of Mycosphaerella graminicola
[5] = test system: Thanatephorus cucumeris (Rhizoctonia solani); test: Thanatephorus cucumeris (Rhizoctonia solani) / liquid culture (foot rot, damping-off); format: cell-based; details: at ≦200 ppm, liquid culture PDB, inhibition of growth photometrically 3-4 days after application, read-out: control of Thanatephorus cucumeris
Description: Thanatephorus cucumeris (Rhizoctonia solani)/Liquid Culture (Foot Rot, Damping-Off Mycelia fragments of a newly grown liquid culture of the fungus are directly mixed into nutrient broth (PDB potato dextrose broth). After placing a DMSO solution of the test compounds into a 96-well microtiter, the nutrient broth containing the fungal material was added. The test plates were incubated at 24° C. and the inhibition of growth was determined photometrically 3-4 days after application. […]-2.508 5.561; 2.561; P.57; 2.513; 2.559; 2.558; 2.553; 2.533; 2.530; 2.526; 2.519; 2.517; 2.516; 2.514; 2.512; 2.514

[6] = test system: Blumeria graminis f. sp. tritici (Erysiphe graminis f. sp. tritici); test: Blumeria graminis f. sp. tritici / wheat / leaf disc preventative (powdery mildew on wheat); format: in vivo; details: foliar, wheat leaf segments cv. Kanzler, inoculated 1 day after application, assessed 6-8 days after application
Description: Blumeria graminis f. sp. tritici (Erysiphe graminis f. sp. tritici)/Wheat/Leaf Disc Preventative (Powdery Mildew on Wheat):
Wheat leaf segments cv. Kanzler were placed on agar in a 24-well plate and sprayed with the formulated test compound diluted in water at an application rate of 200 ppm. The leaf disks were inoculated by shaking powdery mildew infected plants above the test plates 1 day after application. The inoculated leaf disks were incubated at 20° C. and 60% relative humidity under a light regime of 24 h darkness followed by 12 h/12 h (dark/light) in a climate chamber and the activity of a compound was assessed as percent disease control compared to untreated when an appropriate level of disease damage appears on untreated check leaf segments (6-8 days after application). The following compounds gave at least 80% control of Blumeria graminis: E/E-2.168, E/E-2.474, E/E-2.002; 5.561; 2.561; E/E-2.208; 2.513; 2.559; 2.557; 2.556; 2.555; 2.374; 2.552; 2.537; 2.533; 2.530; 2.528; 2.526; 2.519; 2.510; 2.516; 2.514; E/E-5.167; E/E-3.002; 2.512; 2.511

CCOC(=O)c1ccc(C)c(/C(C)=N/OCC(C)(C)CO/N=C2\CCCc3ccc(C)nc32)n1 [Compound 2.526]
≥ 80%: inhibition of growth at up to 200 µg/mL [1] | pest or weed control at 200 ppm [2] | inhibition of growth at up to 200 µg/mL (Glomerella lagenarium) | inhibition of growth at up to 200 µg/mL [3] | inhibition of growth at up to 200 µg/mL (Gaeumannomyces graminis) | inhibition of growth at up to 200 µg/mL [4] | inhibition of growth at up to 200 µg/mL [5] | pest or weed control at 200 ppm [6]
